Data published in US9365868B2, “Fermentation process for producing isopropanol using a recombinant microorganism” (LANZATECH NEW ZEALAND LIMITED, priority 2011, dated 2016).

Columns and labels:
[1] = tested on: Clostridium autoethanogenum DSM23693; assay: Toxicity of acetone and isopropanol on growing cultures; type: cell-based; conditions: at concentrations as high as 5%
Description: Several metabolites such as alcohols (ethanol and butanol) or acids (acetic acid and butyric acid) are known to be toxic for bacteria in high concentrations and thus limit their biotechnological production [Alsaker K V, Parades C, Papoutsakis E T: Metabolite stress and tolerance in the production of biofuels and chemicals—systems analysis of butanol, butyrate, and Acetate Stresses in the Anaerobe Clostridium acetobutylicum. Biotechnol Bioeng, 2009, 105: 1131-1147]. To see if acetone and isopropanol have a toxic effect on cultures, growth experiments were carried out in 50 ml PETC media (Table 2) in serum bottles, adding different concentrations of acetone (FIG. 12) and isopropanol (FIG. 13) to growing cultures of Clostridium autoethanogenum DSM23693.

[2] = tested on: C. autoethanogenum DSM23693; assay: Bottle growth experiments on CO-containing gas, acetone/isopropanol production from expression plasmids; type: cell-based, Clostridium autoethanogenum; conditions: Organism C. autoethanogenum, Substrate CO; for Acetone (g/L): 'Detected' = by GC qualitatively
Description: HPLC analysis of acetone, isopropanol and other metabolites was performed using an Agilent 1100 Series HPLC system equipped with a RID operated at 35° C. (Refractive Index Detector) and an Alltech IOA-2000 Organic acid column (150×6.5 mm, particle size 5 μm) kept at 60° C. Slightly acidified water was used (0.005 M H2SO4) as mobile phase with a flow rate of 0.7 ml/min. To remove proteins and other cell residues, 400 μl samples were mixed with 100 μl of a 2% (w/v) 5-Sulfosalicylic acid and centrifuged at 14,000×g for 3 min to separate precipitated residues. 10 μl of the supernatant were then injected into the HPLC for analyses.
GC analysis of acetone, isopropanol and other metabolites was performed using an Agilent 6890N headspace GC equipped with a Supelco PDMS 100 1 cm fiber, an Alltech EC-1000 (30 m×0.25 mm×0.25 μm) column, and a flame ionization detector (FID). 5 ml samples were transferred into a Hungate tube, heated to 40° C. in a water bath and exposed to the fiber for exactly 5 min. The injector was kept at 250° C. and helium with a constant flow of 1 ml/min was used as carrier gas. The oven program was 40° C. for 5 min, followed by an increase of 10° C./min up to 200° C. The temperature was then further increased to 220° C. with a rate of 50° C./min followed by a 5 min hold this temperature, before the temperature was decreased to 40° C. with a rate of 50° C./min and a final 1 min hold. The FID was kept at 250° C. with 40 ml/min hydrogen, 450 ml/min air and 15 ml/min nitrogen as make up gas.
Growth experiments were carried out with transformed C. autoethanogenum DSM23693 and C. ljungdahlii DSM 13528 carrying plasmid pMTL85147-thlA-ctfAB-adc in 250 ml PETC media (Table 2; without fructose and yeast extract) in 1 l Schott bottles with rubber stoppers and 30 psi steel mill gas (collected from New Zealand Steel site in Glenbrook, NZ; composition: 44% CO, 32% N2, 22% CO2, 2% H2) in the headspace as sole energy and carbon source. Acetone production was confirmed with both strains using HPLC and GC analysis. […] Using appropriate conditions, the produced acetone can then be further converted to isopropanol.
Therefore, both cultures were re-gassed with 30 psi fresh steel-mill gas after 48 h of growth and also re-inoculated. While biomass didn't increase much further, some of the produced acetone got converted into isopropanol within 24 hours (Table 16).
(§1) Constructed expression plasmids pMTL85245-kivd-adh2 and pMTL85245-kivd were transformed into E. coli strain JW3350-2 and prepared for transformation in C. autoethanogenum DSM23693, which was performed as described above. […] In serum bottle experiments, highest isopropanol concentrations from CO-containing steel mill gas were 0.050-0.064 g/L for both expression plasmids (FIGS. 65 and 66).
(§2) All plasmid construct were tested in E. coli and C. autoethanogenum DSM23693 using serum bottle experiments with sugar (E. coli) or CO-containing steel mill gas (C. autoethanogenum) as sole substrate. With all combinations tested, acetone and isopropanol production was measured when expressed heterologously in C. autoethanogenum, while in E. coli acetone production only occurred with few combinations and an alcohol dehydrogenase gene was needed for isopropanol production (Table 21). […] In C. autoethanogenum, acetone and isopropanol production even occurred with expressing the decarboxylase as only heterologous gene, indicating CoA-transferase activity. FIG. 4 illustrates the proposed pathway and Table 21 of acetone and isopropanol formation from CO and FIG. 73 gives an overview of combinations of Clostridial pathway genes and codon-optimized genes for Alpha-ketoacid decarboxylase Kivd from L lactis and Alcohol dehydrogenase Adh2 from S. cerevisiae tested in E. coli and C. autoethanogenum.

E. coli = assay: Serum bottle experiments with plasmid constructs, sugar as sole substrate; type: cell-based, Escherichia coli; conditions: Organism E. coli, 'Detected' = by GC qualitatively
Description: as §1, §2

[3] = tested on: Clostridium autoethanogenum DSM23693; assay: Experiment A: continuous fermentation on steel mill gas; type: cell-based
Description: Clostridium autoethanogenum DSM23693 carrying the vector pMTL83147 thl-ctfAB-adc-adh2 was grown at 37° C. under mill gas (50% CO, 18% CO2, 2% H2, and 30% N2) was continuously fed into the bioreactor. The gas flow was initially set at 80 ml/min, increasing to 200 ml/min over the course of the experiment, while the agitation was increased from 250 rpm to 750 rpm. Na2S was dosed into the bioreactor at 0.20 ml/hr, increasing to 0.4 ml/hr. The bioreactor was switched to a continuous mode at a rate of 1.0 ml/min (Dilution rate 0.96 d^−1) once the OD600 reached 0.17.
Metabolites concentrations were measured using Agilent 1100 Series HPLC system equipped with a RID operated at 35° C. (Refractive Index Detector) and an Alltech IOA-2000 Organic acid column (150×6.5 mm, particle size 5 μm) kept at 60° C. The presence of Acetone and Isopropanol was also measured using Agilent 6890N headspace GC equipped with a Supelco PDMS 100 1 cm fiber, an Alltech EC-1000 (30 m×0.25 mm×0.25 μm) column, and a flame ionization detector (FID). The composition of the gas inflows and outflows was measured using a Varian CP-4900 micro GC with two installed channels. Channel 1 was a 10 m Mol-sieve column running at 70° C., 200 kPa argon and a backflush time of 4.2 s, while channel 2 was a 10 m PPQ column running at 90° C., 150 kPa helium and no backflush. The injector temperature for both channels was 70° C. Sampling of metabolites was performed daily. Gas analysis was automated and measured hourly.
The growth and metabolite profile of Clostridium autoethanogenum DSM23693 carrying the vector pMTL83147 thl-ctfAB-adc-adh2 in a continuous fermentation over 31 days is shown in FIG. 75. The fermentation ran as a batch fermentation from inoculation to day 6. At day 7 the fermentation was switched to continuous fermentation. The increase in acetate concentration coupled with a decrease in ethanol concentration during continuous fermentation seems to have triggered a significant increase in isopropanol production. […] A GC sample was taken during the run, at day 19.

[4] = tested on: C. autoethanogenum DSM23693; assay: Experiment B: bioreactor fermentation on corex gas with cell retention; type: cell-based, Clostridium autoethanogenum; conditions: corex gas 40% CO, continuous mode with membrane cell retention
Description: Fermentations with C. autoethanogenum DSM23693 carrying the vector pMTL83147 thl-ctfAB-adc-adh2 were carried out in 1.5 L bioreactors at 37° C. and CO-containing steel mill gas. The fermenter was fed with corex gas (40% CO, 15% H2, 15% CO2, 30% N2) as sole energy and carbon source as described below. A defined medium was used containing per litre: MgCl, CaCl2 (0.5 mM), KCl (3 mM), H3PO4 (5 mM), Fe (100 μM), Ni, Zn (5 μM), Mn, B, W, Mo, Se (2 μM) was prepared for culture growth. The media was transferred into the bioreactor and autoclaved at 121° C. for 45 minutes. After autoclaving, the medium was supplemented with Thiamine, Pantothenate (0.05 mg), Biotin (0.02 mg) and reduced with 3 mM Cysteine-HCl. To achieve anaerobic conditions the reactor vessel was sparged with nitrogen through a 0.2 μm filter. […]
Metabolites concentrations were measured using Agilent 1100 Series HPLC system equipped with a RID operated at 35° C. […] The presence of Acetone and Isopropanol was also measured using Agilent 6890N headspace GC equipped with a Supelco PDMS 100 1 cm fiber, an Alltech EC-1000 (30 m×0.25 mm×0.25 μm) column, and a flame ionization detector (FID). The composition of the gas inflows and outflows was measured using a Varian CP-4900 micro GC with two installed channels. […] Gas analysis was automated and measured hourly.

[5] = continuous fermentation over 31 days, mill gas 50% CO

CC(C)=O [acetone]
inhibition of growth rate [1]: only slight inhibition of growth rate

CC(C)O [isopropanol]
inhibition of growth rate [1]: only slight inhibition of growth rate

pMTL83147-thlA-ctfAB-adc-P-kivd-adh2: expression plasmid with thlA, ctfAB, adc and Ppta-ack-kivd-adh2, Seq. ID. 101
Isopropanol [2]: 0.043 g/L
Acetone (g/L) [2]: Detected
Acetone (E. coli): 0.076 g/L

pMTL83147-thlA-ctfAB-adc-adh2: expression plasmid with thlA, ctfAB, adc and Adh2 from S. cerevisiae, Seq. ID. No. 98
Isopropanol [2]: 0.648 g/L
Acetone (g/L) [2]: Detected
Acetone (E. coli): 0.040 g/L
presence of the plasmid by PCR ([3]; checked regularly throughout the fermentation): found to be present throughout the fermentation
Isopropanol production rate [3, 5]: 0.7 g per litre per day
isopropanol concentration reached [3, 5]: 0.250 g per litre
isopropanol concentration reached [4]: 0.37 g per Litre

pMTL85147-thlA-ctfAB-adc-kivd: combination plasmid of Clostridial genes and kivd as labelled in Table 21; probably Seq. ID. No. 95
Isopropanol [2]: 0.091 g/L
Acetone (g/L) [2]: Detected
Acetone (g/L) (E. coli): Detected
